System: TauP301L-BiFC Tg mice
Assay: Novel Objective Recognition test in tau transgenic mice
Format: in vivo
Conditions: oral 10 mg/kg, 5 times per week, 19 weeks, Vehicle = 0.48
Description: Compounds 6, 16, and 20 were orally administered to 8.2-month-old tau transgenic animal model (TauP301L-BiFC tg mouse) 5 times per week at a concentration of 10 mg/kg for a total of 19 weeks (n=10/group). WT mice of similar age to the vehicle-treated group of TauP301L-BiFC mice were used as a control group. Three types of behavioral experiments (Novel Objective Recognition test, Y-maze test, Balance beam test) were performed to confirm the improvement effects on cognitive function and motor function by drug administration, and these experiments and their results were as follows. • (1) Novel Objective Recognition test: To evaluate the object recognition memory ability of mice, two identical objects (Old-Old) were explored for 10 minutes in a 40 cm × 40 cm box. The next day, one object was replaced with a new object (Old-New) and exploration was performed again for 10 minutes, and then the time showing exploratory behavior toward the existing object and the new object was measured. Mice with normal object recognition ability (Recognition index) spent more time exploring the newly changed object, whereas mice with low object recognition ability could not distinguish the new object. The object recognition ability (Recognition index) values were as follows: (RI, Vehicle= 0.48, n.s., #20= 0.59, p<0.05, #6= 0.66, p<0.0001, #16= 0.58, p<0.05). In TauP301L-BiFC mice, the object recognition function improvement effect by drugs #20, #6, and #16 compared to the vehicle group was confirmed. • (2) Y-maze test: A Y-maze test was performed to evaluate the spatial working memory ability of mice. Whether the mice entered the three arms of the Y-maze by spontaneous alternation behavior for a certain period of time was measured through video recording. An increase in the spontaneous alternation ratio was considered as improved working memory ability. […] The time taken to cross a rod with a height of 50 cm and length of 80 cm and the number of times the feet went outside the rod during crossing were measured. […]

Cn1c(N2CCOCC2)nc2cc(NN=C(C#N)C#N)ccc21 [Compound 6, (1-methyl-2-morpholino-1H-benzo[d]imidazol-5-yl)carbonohydrazonoyl dicyanide]
object recognition ability (Recognition index, RI): 0.66

CC1COCCN1c1nc2ccc(NN=C(C#N)C#N)cc2o1 (stereo not drawn) [Compound 16, (2-(3-methylmorpholino)benzo[d]oxazol-6-yl)carbonohydrazonoyl dicyanide]
object recognition ability (Recognition index, RI): 0.58

N#CC(C#N)=NNc1ccc2nc(N3C4CCC3COC4)oc2c1 [Compound 20, (2-(3-oxa-8-azabicyclo[3.2.1]octan-8-yl)benzo[d]oxazol-6-yl)carbonohydrazonoyl dicyanide]
object recognition ability (Recognition index, RI): 0.59
